Results taken from patent US20220243210A1, “ANGIOTENSIN II TYPE 1 RECEPTOR TARGETED OLIGONUCLEOTIDES AND USES THEREOF” (Ionis Pharmaceuticals, Inc., priority 2019, published 2022).
Oligonucleotides are written 5' to 3', each unit as a sugar letter and its base; * is a phosphorothioate linkage, no mark a phosphodiester; rarer units and linkages stand in square brackets, end groups in braces. Plain capitals give the bases only. k = constrained ethyl (cEt); [5mC] = 5-methylcytosine; d = 2'-deoxy (DNA)

Tests used:
HEK-APLNR FAP cells = assay: IP1 accumulation negative control in HEK-APLNR FAP cells (do not express AGTR1); type: cell-based, human; settings: 24 hours
Protocol: (§1) Activated AGTR1 couples to the Gαq subunit of heterotrimeric G proteins, which activates the phospholipase C (PLC) and subsequently inositol 1,4,5-trisphosphate (IP3) signaling cascade. AGTR1 signaling was measured using an IP-One Gq kit (cisbio #62IPAPEB). The kit detects the accumulation of inositol monophosphate (IP1), a stable downstream metabolite of IP3 induced by activation of a phospholipase C (PLC) cascade.
As a negative control, Compound Nos. 556089 and 1229761 were also tested in HEK293 cells expressing FAP tagged human Apelin receptor (HEK-APLNR FAP cells from Spectragenetics). […] HEK-APLNR FAP cells were cultured with Compound Nos. 556089 and 1229761, described herein above, at the concentrations detailed in Table 2 for 24 hours.

human AGTR1 = target: T1, human AGTR1 (Homo sapiens, UniProt P30556); assay: AGTR1 signaling, IP-One Gq kit (IP1 accumulation), HEK-AGTR1 FAP cells; type: cell-based; settings: 90 minutes
T1 construct: host or cells: HEK293 (HEK-AGTR1 FAP cells)
T1 sequence (P30556 1-359): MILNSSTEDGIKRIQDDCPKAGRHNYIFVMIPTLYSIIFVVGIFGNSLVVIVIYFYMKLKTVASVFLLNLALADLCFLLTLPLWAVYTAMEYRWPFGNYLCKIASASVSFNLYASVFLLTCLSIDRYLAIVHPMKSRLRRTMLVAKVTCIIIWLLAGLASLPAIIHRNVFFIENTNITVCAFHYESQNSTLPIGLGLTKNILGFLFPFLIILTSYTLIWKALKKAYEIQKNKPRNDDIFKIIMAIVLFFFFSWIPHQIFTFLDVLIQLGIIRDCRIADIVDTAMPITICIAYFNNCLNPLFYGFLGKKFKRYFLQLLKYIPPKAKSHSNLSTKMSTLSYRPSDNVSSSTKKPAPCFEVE
Protocol: as §1
An additional control compound, AngII, which consists of the peptide motif […], was also tested. […] AGTR1 activation was measured using the IP-One Gq kit.

mouse MALAT RNA = assay: MALAT RNA reduction in vivo, C57BL6/J mice, multiple dose; settings: for ED50: IV day 0, 4, 8
Protocol: Compound Nos. 556089, 1229761, and 1229762 are described in Table 1 above. Compound Nos. 556089, 1229761, and 1229762 were tested in C57BL6/J mice. The mice were divided into groups of 4 mice each. […] The mice were then sacrificed on day 12. Heart, adipose, adrenal, kidney, and liver tissue was then collected and homogenized and RNA analysis was performed. A group of 4 mice received PBS as a negative control.
RNA was extracted from heart, adipose, adrenal, kidney, and liver tissue for real-time PCR analysis of measurement of RNA expression of MALAT using primer probe set mMALAT1 #2 (forward sequence […] (SEQ ID NO: 5); reverse sequence […] (SEQ ID NO: 6); probe sequence […] (SEQ ID NO: 7)). Results are presented as percent change of RNA, relative to PBS control, normalized to mouse GAPDH.

human MALAT1 RNA [1] = assay: MALAT1 RNA reduction in HEK-AGTR1 FAP cells, free uptake, 24 hours; type: cell-based; settings: 24 hours; for MALAT (% control): relative to untreated control cells
Protocol: (§2) At the end of the treatment period, total RNA was isolated from the cells and MALAT1 RNA levels were measured by quantitative real-time PC&. […] MALAT1 RNA levels were normalized according to total RNA content, as measured by RIBOGREEN®. Reduction of MALAT1 RNA is presented Table 3 below as percent MALAT1 RNA amount relative to untreated control (UTC) cells. The half maximal inhibitory concentration (IC50) of each modified oligonucleotide was calculated using a non-linear fit [inhibitor] vs. response—variable slope (four parameters) formula in GraphPad Prism 7.01.

human MALAT1 RNA [2] = assay: MALAT1 RNA reduction in HEK-AGTR1 FAP cells, free uptake, 48 hours; type: cell-based; settings: 48 hours; for MALAT (% control): relative to untreated control cells
Protocol: as §2, with “PCR.” for “PC&.”, “Reduction of MALAT1 RNA is presented Table 3 below as percent MALAT1 RNA amount relative to untreated control (UTC) cells.” left out, “response-variable” for “response—variable”, “(three” for “(four”

Substance: Compound No. 556089: Control unconjugated parent modified oligonucleotide GCATTCTAATAGCAGC, cEt gapmer, phosphorothioate, complementary to mouse MALAT1 RNA (kG*k[5mC]*kA*dT*dT*d[5mC]*dT*dA*dA*dT*dA*dG*d[5mC]*kA*kG*k[5mC]) [reference compound]
- IP1 accumulation (HEK-APLNR FAP cells; 0.0256 nM): 584 nM
- IP1 accumulation (HEK-APLNR FAP cells; 0.128 nM): 536 nM
- IP1 accumulation (HEK-APLNR FAP cells; 0.64 nM): 563 nM
- IP1 accumulation (HEK-APLNR FAP cells; 3.2 nM): 538 nM
- IP1 accumulation (HEK-APLNR FAP cells; 16 nM): 526 nM
- IP1 accumulation (HEK-APLNR FAP cells; 80 nM): 514 nM
- IP1 accumulation (HEK-APLNR FAP cells; 400 nM): 553 nM
- IP1 accumulation (HEK-APLNR FAP cells; 2000 nM): 542 nM
- IP1 accumulation (human AGTR1; 0.0256 nM): 696 nM
- IP1 accumulation (human AGTR1; 0.128 nM): 669 nM
- IP1 accumulation (human AGTR1; 0.64 nM): 692 nM
- IP1 accumulation (human AGTR1; 3.2 nM): 658 nM
- IP1 accumulation (human AGTR1; 16 nM): 646 nM
- IP1 accumulation (human AGTR1; 80 nM): 605 nM
- IP1 accumulation (human AGTR1; 400 nM): 648 nM
- IP1 accumulation (human AGTR1; 2000 nM): 672 nM
- MALAT-1 RNA (% control) (mouse MALAT RNA; Adipose, 0.4 μmol/kg IV day 0, 4, 8, sacrifice day 12, relative to PBS): 68.4 % control
- MALAT-1 RNA (% control) (mouse MALAT RNA; Adipose, 1.2 μmol/kg IV day 0, 4, 8, sacrifice day 12, relative to PBS): 41.1 % control
- MALAT-1 RNA (% control) (mouse MALAT RNA; Adipose, 3.6 μmol/kg IV day 0, 4, 8, sacrifice day 12, relative to PBS): 27.3 % control
- ED50 (mouse MALAT RNA; Adipose): 0.034 µmol/kg
- MALAT-1 RNA (% control) (mouse MALAT RNA; Adrenal, 0.4 μmol/kg IV day 0, 4, 8, sacrifice day 12, relative to PBS): 95.2 % control
- MALAT-1 RNA (% control) (mouse MALAT RNA; Adrenal, 1.2 μmol/kg IV day 0, 4, 8, sacrifice day 12, relative to PBS): 75.7 % control
- MALAT-1 RNA (% control) (mouse MALAT RNA; Adrenal, 3.6 μmol/kg IV day 0, 4, 8, sacrifice day 12, relative to PBS): 64.1 % control
- ED50 (mouse MALAT RNA; Adrenal): 1.102 µmol/kg
- MALAT-1 RNA (% control) (mouse MALAT RNA; Heart, 0.4 μmol/kg IV day 0, 4, 8, sacrifice day 12, relative to PBS): 76.7 % control
- MALAT-1 RNA (% control) (mouse MALAT RNA; Heart, 1.2 μmol/kg IV day 0, 4, 8, sacrifice day 12, relative to PBS): 74.7 % control
- MALAT-1 RNA (% control) (mouse MALAT RNA; Heart, 3.6 μmol/kg IV day 0, 4, 8, sacrifice day 12, relative to PBS): 45.7 % control
- ED50 (mouse MALAT RNA; Heart): 4.11 µmol/kg
- MALAT-1 RNA (% control) (mouse MALAT RNA; Kidney, 0.4 μmol/kg IV day 0, 4, 8, sacrifice day 12, relative to PBS): 50.0 % control
- MALAT-1 RNA (% control) (mouse MALAT RNA; Kidney, 1.2 μmol/kg IV day 0, 4, 8, sacrifice day 12, relative to PBS): 46.7 % control
- MALAT-1 RNA (% control) (mouse MALAT RNA; Kidney, 3.6 μmol/kg IV day 0, 4, 8, sacrifice day 12, relative to PBS): 24.6 % control
- ED50 (mouse MALAT RNA; Kidney): 3.535 µmol/kg
- MALAT-1 RNA (% control) (mouse MALAT RNA; Liver, 0.4 μmol/kg IV day 0, 4, 8, sacrifice day 12, relative to PBS): 35.8 % control
- MALAT-1 RNA (% control) (mouse MALAT RNA; Liver, 1.2 μmol/kg IV day 0, 4, 8, sacrifice day 12, relative to PBS): 24.1 % control
- MALAT-1 RNA (% control) (mouse MALAT RNA; Liver, 3.6 μmol/kg IV day 0, 4, 8, sacrifice day 12, relative to PBS): 7.2 % control
- ED50 (mouse MALAT RNA; Liver): 1.578 µmol/kg
- MALAT (% control) (human MALAT1 RNA [1]; 12 nM): 86 % control
- MALAT (% control) (human MALAT1 RNA [1]; 37 nM): 98 % control
- MALAT (% control) (human MALAT1 RNA [1]; 111 nM): 91 % control
- MALAT (% control) (human MALAT1 RNA [1]; 333 nM): 63 % control
- MALAT (% control) (human MALAT1 RNA [1]; 1000 nM): 60 % control
- MALAT (% control) (human MALAT1 RNA [1]; 3000 nM): 36 % control
- MALAT (% control) (human MALAT1 RNA [1]; 9000 nM): 29 % control
- IC50 (human MALAT1 RNA [1]; MALAT1 RNA, four parameter fit): 0.85 µM
- MALAT (% control) (human MALAT1 RNA [2]; 2.7 nM): 97 % control
- MALAT (% control) (human MALAT1 RNA [2]; 8.2 nM): 100 % control
- MALAT (% control) (human MALAT1 RNA [2]; 24.7 nM): 104 % control
- MALAT (% control) (human MALAT1 RNA [2]; 74.1 nM): 99 % control
- MALAT (% control) (human MALAT1 RNA [2]; 222.2 nM): 82 % control
- MALAT (% control) (human MALAT1 RNA [2]; 666.7 nM): 68 % control
- MALAT (% control) (human MALAT1 RNA [2]; 2000 nM): 43 % control
- MALAT (% control) (human MALAT1 RNA [2]; 6000 nM): 25 % control
- MALAT (% control) (human MALAT1 RNA [2]; .10 nM): 104 % control
- MALAT (% control) (human MALAT1 RNA [2]; .3 nM): 106 % control
- MALAT (% control) (human MALAT1 RNA [2]; .9 nM): 101 % control
- IC50 (human MALAT1 RNA [2]; MALAT1 RNA, three parameter fit): 1.53 µM
